Broadly, the IC50 is the point on the concentration scale where inhibition reaches its midpoint. Low values mean inhibition by little substance, high ones a need for much substance.

This is an account of results in ChEMBL document CHEMBL1133149, “Synthesis and biological evaluation of analogues of bacterial lipid I” (Bioorg Med Chem Lett, 2000).

Experiment [1] can be described thus: Compound was evaluated for its ability to inhibit MraY enzyme for the conversion of Lipid I to lipid II in coupled MraY/MurG assay; NI is No Inhibition at 234 ug/mL. Also on record: species or system Escherichia coli.
For experiment [2], the system named is Escherichia coli. The experiment can be described thus: (§1) Compound was evaluated for its ability to inhibit MurG enzyme for the conversion of Lipid I to lipid II in coupled MraY/MurG assay; NI is No Inhibition at 234 ug/mL.
Experiment [3] relates to Escherichia coli. The experiment in a line: Compound was evaluated for its ability to inhibit MraY enzyme for the conversion of Lipid I to lipid II in the coupled MraY/MurG assay; Ni is No Inhibition at 234 ug/mL.
Experiment [4] concerns Escherichia coli. The experiment can be described thus: Compound was evaluated for its ability to inhibit MurG enzyme for the conversion of Lipid I to lipid II in MurG enzyme assay; NI is No Inhibition at 234 ug/mL.
Experiment [5] has as its system Escherichia coli. The experiment can be described thus: Compound was evaluated for its ability to inhibit the formation of peptidoglycan by incorporation of [14C]GlcNAc into TCA insoluble, filter-capturable material; NI is No Inhibition at 200 ug/mL. In kind it is functional, organism-based.
Experiment [6] deals with Escherichia coli. The experiment in a line: Compound was evaluated for its ability to inhibit MraY enzyme for the conversion of Lipid I to lipid II in the coupled MraY/MurG assay; Ni is No Inhibition at 238 ug/mL.
Experiment [7] in a line: Compound was evaluated for its ability to inhibit MurG enzyme for the conversion of Lipid I to lipid II in MurG enzyme assay. Also on record: species or system Escherichia coli.
Experiment [8] concerns Escherichia coli. The experiment can be described thus: Compound was evaluated for its ability to inhibit MurG enzyme for the conversion of Lipid I to lipid II in the coupled MraY/MurG assay; NI is No inhibition at 238 ug/mL.
The subject of experiment [9] is Escherichia coli. The experiment in a line: Compound was evaluated for its ability to inhibit MurG enzyme for the conversion of Lipid I to lipid II in coupled MraY/MurG assay; NI is No Inhibition at 256 ug/mL.
The test system of experiment [10] is Escherichia coli. The experiment in a line: Compound was evaluated for its ability to inhibit MurG enzyme for the conversion of Lipid I to lipid II in MurG enzyme assay; NI is No Inhibition at 256 ug/mL.
Experiment [11] concerns Escherichia coli. The experiment can be described thus: Compound was evaluated for its ability to inhibit MraY enzyme for the conversion of Lipid I to lipid II in the coupled MraY/MurG assay; Ni is No Inhibition at 256 ug/mL.
A short description of experiment [12]: as §1. On the set-up: species or system Escherichia coli.

Values after ≈ are worked out from the molar mass of the structure shown.

For the compound `CC(=O)N[C@H]1[C@@H](O[C@@H]2O[C@H](CC(O)[C@H]3O[C@@H](n4ccc(=O)[nH]c4=O)[C@H](O)[C@@H]3O)[C@H](O)[C@H](O)[C@H]2NC(=O)/C=C/CC(C)C)O[C@H](CO)[C@@H](N)[C@@H]1O` (some centres undefined) [TUNICAMYCIN], in [1], the IC50 was less than 1 µg/mL.
With `CC(=O)NC1C(Sc2ccccc2)OC(CO)C(O)C1O[C@@H](C)C(=O)N[C@@H](C)C(=O)N[C@H](CCC(=O)N[C@@H](CCCCN)C(=O)N[C@H](C)C(=O)N[C@H](C)C(=O)O)C(=O)O` (some centres undefined), the Activity entry in [2], in experiment [3], in experiment [4] and in experiment [5] was “No inhibition” each time.
For the compound `CC(=O)NC1C(OP(=O)(O)O)OC(CO)C(O)C1O[C@@H](C)C(=O)N[C@@H](C)C(=O)N[C@H](CCC(=O)N[C@@H](CCCCN)C(=O)N[C@H](C)C(=O)N[C@H](C)C(=O)O)C(=O)O` (some centres undefined), the Activity result in experiment [5], in experiment [6] and in experiment [8] was “No inhibition” in each case. Moreover, the IC50 in [7] is 50 µg/mL (≈ 59.3 µM).
Regarding `COC1OC(CO)C(O)C(O[C@@H](C)C(=O)N[C@@H](C)C(=O)N[C@H](CCC(=O)N[C@@H](CCCCN)C(=O)N[C@H](C)C(=O)N[C@H](C)C(=O)O)C(=O)O)C1NC(C)=O` (some centres undefined), the Activity entry in experiment [9], in experiment [10], in experiment [5] and in experiment [11] was “No inhibition” throughout.
In the case of RAMOPLANIN, the IC50 in experiment [12] is less than 1 µg/mL.
